This is an account of results in patent publication US9255272B2, “Use of inhibitors of leukotriene B4 receptor BLT2 for treating asthma” (Korea University Research & Business Foundation, priority 2007, dated 2016).

In one data set the test system is VCAM-1. As to the kind of experiment: VCAM-1 expression in lung tissue (Western blot). The data set is classed as in vivo, mouse. The protocol:
(§1) Female BALB/c mice and C57BL/6 mice (7 weeks old; 18-20 g) were obtained from Orientbion Inc. (Seoungnam, Korea). Sensitization and challenge were carried out as described previously with some modification (28). Briefly, female C57BL/6 mice (7 weeks old; 18-20 g) were immunized by intraperitoneal (i.p.) injection of 200 μg ovalbumin (OVA) emulsified in 2.5 mg of adjuvant aluminum hydroperoxide gel (alum) (Pierce, Rockford, Ill.). A second i.p. injection of 20 μg OVA adsorbed onto alum (2.5 mg) was administered 10 days later. After an additional 10 days, mice were exposed to an aerosol of 1% OVA in saline for 30 min daily on 3 consecutive days. On day 25, mice were finally challenged by provocation with 10% OVA aerosol. For inhibition experiments, sense or antisense BLT2 (1.6 mg/kg) was injected intravenously 24 h and then 1 h before the 10% OVA challenge. The mice were then killed on day 27 to assess asthmatic phenotypes. Antisense BLT2 oligonucleotide (5′-[…]-3′ (SEQ ID NO: 15)), sense BLT2 oligonucleotide (5′-[…]-3′ (SEQ ID NO: 16)).
Alternatively, BALB/c mice were sensitized on day 1 by i.p. injection of 20 μg OVA emulsified in 2.5 mg of alum (Pierce, Rockford, Ill.), followed by an identical booster injection administered on day 14. On days 21, 22 and 23 after initial sensitization, the mice were challenged for 30 min with an aerosol of 1% OVA using an ultrasonic nebulizer. LY255283 (2.5 mg/kg) or vehicle control (DMSO) was administered intravenously 1 h before 1% OVA challenge. Mice were killed on day 25, to assess asthmatic phenotypes. 2′,7′-dichorofluorescein diacetate (DCF-DA) was purchased from Molecular Probes (Eugene, Oreg.). BSA and DMSO were from Sigma-Aldrich (St. Louis, Mo.). Acetyl-methacholine chloride was purchased from Sigma-Aldrich (St. Louis, Mo.). All other chemicals were from standard sources and were of molecular biology grade or higher. […]
(A western blot detects proteins with antibodies after separation by electrophoresis.)

The subject of another data set is OVA-challenged mice. Put plainly: Histological analysis of lung airway inflammation in OVA-challenged mice. The data set is classed as in vivo, mouse. The method, then: as §1
Alternatively, BALB/c mice were sensitized on day 1 by i.p. injection of 20 μg OVA emulsified in 2.5 mg of alum (Pierce, Rockford, Ill.), followed by an identical booster injection administered on day 14. On days 21, 22 and 23 after initial sensitization, the mice were challenged for 30 min with an aerosol of 1% OVA using an ultrasonic nebulizer. LY255283 (2.5 mg/kg) or vehicle control (DMSO) was administered intravenously 1 h before 1% OVA challenge. Mice were killed on day 25, to assess asthmatic phenotypes. 2′,7′-dichorofluorescein diacetate (DCF-DA) was purchased from Molecular Probes (Eugene, Oreg.). BSA and DMSO were from Sigma-Aldrich (St. Louis, Mo.). Acetyl-methacholine chloride was purchased from Sigma-Aldrich (St. Louis, Mo.). All other chemicals were from standard sources and were of molecular biology grade or higher. All mice were maintained and bred under specific pathogen-free conditions in the Korea University mouse facility, and experiments were conducted within the parameters of an approved protocol by the Animal Research Committee.
Inflammatory cells in the BAL fluid were collected by centrifugation (1,000 g for 3 min) and washed once in PBS. Cells were counted using a hemocytometer, and viability was assessed by trypan blue exclusion. In addition, cytospin was carried out for each BAL sample, which was then stained with Diff-Quick (Merck, Dorset, U.K.), enabling differential cell counts to be made. For histological analysis, the lungs of the mice were dissected 48 h after OVA challenge and fixed with 10% formaldehyde in PBS, dehydrated in ethanol-xylene, and embedded in paraffin. Multiple paraffin-embedded […] sections were placed on 0.5% gelatin-coated slides, deparaffinized, and stained with hematoxylin-eosin (HE). Images were acquired using a BX51 microscope (Olympus, Tokyo, Japan) equipped with a DP71 digital camera (Olympus, Tokyo, Japan).
(§2) Inflammatory cells in the BAL fluid were collected by centrifugation (1,000 g for 3 min) and washed once in PBS. Cells were counted using a hemocytometer, and viability was assessed by trypan blue exclusion. […]
as §2

Setting [1] is: BALB/c mice, LY255283 2.5 mg/kg i.v. 1 hr before 1% OVA challenge.
Where [2] appears, read: C57BL/6 mice, antisense BLT2 1.6 mg/kg i.v. 24 hr and 1 hr before 10% OVA challenge.

As to “antisense Rac: phosphorothioate 17-mer to the 5′ end of murine Rac mRNA, 5′-CACTTGATGGCCTGCAT-3′ (SEQ ID NO: 22) (listed as DNA, chemistry not fully specified)”, in the data set on VCAM-1 (antisense Rac 1.25 mg/kg, tail vein), the “OVA-induced VCAM-1 induction in lung tissue” value is “suppressed this effect”. Moreover, in the data set on OVA-challenged mice (Rac antisense i.v. 24 hr and 1 hr before 10% OVA challenge, 48 hr after challenge), the “airway obstruction and leukocyte infiltration (histology)” value is on record as “diminished the effect”.
Take `CCc1cc(C(C)=O)c(O)cc1OCCCCCC(C)(C)c1nnn[nH]1` [LY255283, 1-[5-ethyl-2-hydroxy-4-[[6-methyl-6-(1H-tetrazol-5-yl)heptyl]oxy]phenyl]-ethanone, reference compound]: the “suppression of OVA-induced VCAM-1 induction in lung tissue” value in the data set on VCAM-1 (LY255283 2.5 mg/kg 1 hr before 1% OVA challenge) is recorded as −60%. In the data set with OVA-challenged mice (setting [1]), the “airway obstruction and leukocyte infiltration (histology)” value is on record as “diminished the effect”; the “reduction of inflammation score as compared to control” value was ~66%.
As for “antisense BLT2: Antisense BLT2 oligonucleotide 5′-GCTCAGTAGTGTCTCATTCC-3′ (SEQ ID NO: 15) (listed as DNA, chemistry not fully specified)”, the “suppression of OVA-induced VCAM-1 induction in lung tissue” value in the data set on VCAM-1 (antisense BLT2 1.6 mg/kg) was −60%. Also, in the data set with OVA-challenged mice (setting [2]), the “airway obstruction and leukocyte infiltration (histology)” value is on record as “diminished”; the “reduction of inflammation scores as compared to control” value is reported as ~67%.
